Data: a melting point compilation (Tetko et al.; mined from patent text by program, amines drawn as free bases though some values may be those of a salt)

Row | melting point [°C] | Structure (SMILES)
1 | 101 to 102 | Cc1cccc(N2CCN(C(=O)OC(C)(C)C)CC2)c1[N+](=O)[O-]
2 | 198 to 215 | Cc1ccc(C(=O)c2cccc(C(=O)O)c2)c(O)c1
3 | 125 | CC(C)C1(n2cccn2)CN(C(=O)O)N=C1c1ccc(F)cc1 (centres undefined)
4 | 185 to 186 | Cc1oc(-c2ccccc2)nc1CCC(=NO)c1ccc(CCCC2OC(=O)NC2=O)cc1 (centres undefined)
5 | 76 to 78 | OC1CCC2(CC1)Cc1ccccc1C2
6 | 49.5 to 52 | COC(=O)C(C)c1ccc2cc(OC(=O)CO)ccc2c1 (centres undefined)
7 | 192 to 193 | N#Cc1cccc(CSc2nnc(-c3ccc4ncc(-c5ccccn5)n4c3)o2)c1
8 | 272 to 274 | Cc1nnc(Cl)c2cc3n(c12)CCCC3
9 | 212 | CSCCC(NCc1cc(Br)cc(Br)c1N)C(=O)O (centres undefined)
10 | 92 to 94 | Cn1nc(-c2ncc(Cl)cc2F)c(N)c1OC(F)F
11 | 113 | O=C1[C@H](CC[C@H](O)c2ccc(F)cc2)[C@@H](c2ccc(O)c(-c3ccccc3)c2)N1c1ccc(F)cc1
12 | 110 to 115 | CN(C)c1cccc(OCC(=O)C=P(c2ccccc2)(c2ccccc2)c2ccccc2)c1
13 | 250 to 255 | C#CCS(=O)(=O)c1cccc([N+](=O)[O-])c1
14 | > 200 | C=C(C)C=COc1ccc(C(=O)C=Cc2ccc(OCC(=O)O)c(OC)c2)c(OCC(=O)O)c1
15 | 58 to 61 | CCOC(=O)c1c(Sc2ccccc2)cc(C(F)(F)F)nc1C(F)(F)F
16 | 145 to 146 | COc1ccc(CSc2nnc(-c3ccc4ncsc4c3)o2)cc1C(F)(F)F
17 | 219 to 220 | Fc1ccc(-c2cc(Cn3cnc4c(Cl)nc5ccccc5c43)on2)cc1
18 | 151 to 153 | C/C(=C(\C#N)C(N)=S)N1CCCN(c2ccccc2)CC1
19 | 144 to 145 | O=C(O)C1CCc2onc(-c3ccc(Cl)cc3)c2CC1 (centres undefined)
20 | 56 to 58 | Cc1cc(C#Cc2cccc(-c3ccccc3)c2)ccn1

Second part, the compound before the results:

Row | Structure (SMILES) | melting point [°C]
21 | CCCCNC(P(=O)(O)O)P(=O)(O)O | 188 to 189
22 | CC(c1cc(Cl)cc(Cl)c1O)c1cc(F)cc(Cc2cc(Cl)ccc2O)c1O (centres undefined) | 166
23 | O=P(O)(O)Cc1ccc(CS(=O)(=O)c2ccccc2)cc1 | > 280
24 | CCOCc1nc2c(N)nc3ccccc3c2n1CC1(OCCS(C)(=O)=O)CCNCC1 | 212 to 214
25 | Cc1nc(N2C(=O)N(Cc3ccc(F)cc3)CC2O)sc1C(=O)NCc1cccnc1 (centres undefined) | 64 to 66
26 | COc1ccc2c(c1)C(c1ccncc1)Nc1cc(Cl)ccc1O2 (centres undefined) | 186 to 188
27 | OC[C@H](O)COc1nc(Oc2ccc(F)cc2F)nc2[nH]nc(-c3ccccc3Cl)c12 | 179 to 181
28 | CCCCCCCCCCCCCCCCCc1nnc(CO)n1-c1sc(CC)cc1C(=O)c1ccc(C)cc1 | 68 to 69
29 | COC(=O)C1(C(=O)OC)CCC(c2c(-c3ccccc3)n(C)c3ccccc23)CC1 | 134 to 135
30 | CN(C)Cc1cc(C(N)=O)ccc1OCCN(C)Cc1ccc(Cl)cc1 | 123 to 124
31 | O=C1OCCN1c1ccc2cc[nH]c2c1 | 199
32 | Cc1ccccc1Sc1c(O)c2c(Cl)cc(Cl)cc2[nH]c1=O | > 300
33 | Nc1ccc2nc3c(c(N)c2c1)C(=O)CCC3 | 310
34 | CCOP(=O)(OCC)C(OS(=O)(=O)c1ccc(C)cc1)c1cccc([N+](=O)[O-])c1 (centres undefined) | 90 to 92
35 | COC(=O)C(=O)c1ccc(OCCSc2ccccc2)cc1 | 49 to 51
36 | CC(C)(F)c1cnn2c(-c3ccc(F)c(-c4ccc(F)cc4C#N)c3F)cnc2n1 | 166 to 169
37 | CN1CCCCC1CCc1ccccc1NC(=O)c1cccnc1 (centres undefined) | 88 to 90
38 | O=C(O)C(Cc1ccccc1)c1ccc2ccn(Cc3ccccc3)c2c1 (centres undefined) | 148 to 150
39 | CC(C)(C)OC(=O)N1CC[C@H]2c3c(-c4ccccc4F)cccc3N(C(=O)OC(C)(C)C)[C@H]2CC1 (relative stereo) | 166 to 169
